The results in this text go back to patent publication US7063946B2, “Methods, reagents, kits and apparatus for protein function analysis” (Meso Scale Technologies, LLC., priority 2001, dated 2006).

Assay in all cases: Kinase inhibitor profiling, autophosphorylation
What all share (type): biochemical

One test has as its target T1, SRC (Mus musculus, UniProt P05480).
T1 construct: specificity data for proteins generated from a library of eighteen full-length clones; host or cells: rabbit reticulocyte lysate, TnT coupled transcription/translation
As for the experimental part:
(§1) Proteins were produced from DNA plasmids of Mock Luciferase, Promega, tyrosine kinase clone Spleen Tyrosine kinase (SYK, IMAGE ID# 3870426) and Eph receptor-A7 (EphA7, IMAGE ID# 3991628) (Incyte Genomics, CA) and immobilized on streptavidin or avidin coated NPT-IPR plates as described in the Example 7. To promote autophosphorylation in these immobilized and purified proteins, Mn++ ions were added in a 50 μl reaction containing 5 mM MgCl2, 5 mM MnCl2, 100 μM ATP, 25 mM Tris-HCl buffer pH 7.4, 0.05 mM Na3VO4, 0.004% TritonX-100, 2 mM DTT and EDTA-free protease inhibitor (Roche Molecular Biochemicals). This mixture was incubated with shaking at room temperature overnight to allow autophosphorylation. Following this incubation, wells were washed 2 times with TT-buffer and 2 times with water. Following this step, 50 ng Sulfo-TAG labeled anti-phosphotyrosine in buffer containing 25 mM Tris-HCl buffer pH 7.4, 5 mM MgCl2, 0.05 mM Na3VO4, 0.004% TritonX-100, 2 mM DTT and 0.05% IgG in a final volume of 50 μl was added followed by incubation at room temperature for 45 min. The unbound reagents were removed by one time washing with water, and the TAG label was detected in presence of 150 μl IPR assay buffer (0.4 mM Gly—Gly buffer, pH 7.8, 1 mM EDTA, 0.1 M TPA). The ECL signals were measured using an imaging plate reader.
(§2) Proteins were produced using 100 ng of plasmid DNA Mock (Luciferase, Promega) or tyrosine kinases (Fert2 IMAGE ID # 4485050, FGFR1 IMAGE ID # 4037899, Fgfr2 IMAGE ID # 2654352, Src IMAGE ID # 3156400, BMX IMAGE ID # 3919253, LCK IMAGE ID # 4191610, Epha7 IMAGE ID # 3991628, Ephb4 IMAGE ID # 4013934, Tek IMAGE ID # 3482498, HCK IMAGE ID # 4778819, BTK IMAGE ID # 4478463, CSK IMAGE ID # 4398416, SYK IMAGE ID # 3870426, FGR IMAGE ID # 4419973, PTK2B IMAGE ID # 4339456, FRK(IMAGE ID # 4515877, Kit IMAGE ID # 2644960, Fgfr-4 IMAGE ID # 4239139, NTRK3 IMAGE ID # 4181574, Kdr IMAGE ID # 4238984, Incyte Genomics, CA) and immobilized on SA or avidin coated NPT-IPR plates as described in previous examples. The unbound components of the translation reaction (including any endogenous kinases) were removed by 3 washes with TT-buffer (25 mM Tris-HCl buffer pH 7.4 and 0.004% Triton), two five minutes washes with high-salt wash buffer (25 mM Tris-HCl buffer pH 7.4, 0.004% Triton, 1M NaCl and 5 mM DTT) and 3 washes with TT-buffer. […] The mixture was incubated at room temperature for 10 mm before starting the kinase reaction by adding 25 μl of 200 μM ATP in buffer A. This mixture was incubated with intermittent shaking at room temperature for 2 hours to overnight to allow (a) phosphorylation of the pEY substrate and (b) autophosphorylation of the immobilized kinases. Autophosphorylation and phosphorylation of the pEY was measured as described in Examples 7 and 8.
(§3) The ECL signal in control wells produced by tyrosine kinases was compared to the wells containing inhibitor compounds. The signal produced from Mock was negligible.

The target of the next test is T2, Fgfr4 (Mus musculus, UniProt Q03142).
T2 construct: specificity data for proteins generated from a library of eighteen full-length clones; biotin on random lysines (biotin-Lys-tRNA); host or cells: rabbit reticulocyte lysate, coupled transcription/translation (TnT, Promega)
As for the experimental part: as §1, §2, §3

A further test has as its target T3, CSK (Homo sapiens, UniProt P41240).
T3 construct: specificity data for proteins generated from a library of eighteen full-length clones; host or cells: rabbit reticulocyte lysate, TnT coupled in vitro transcription/translation (cell-free)
As for the experimental part:
as §1, §2, §3

A further test addresses T4, HCK (Homo sapiens, UniProt P08631).
T4 construct: specificity data for proteins generated from a library of eighteen full-length clones; host or cells: rabbit reticulocyte lysate, TnT coupled in vitro transcription/translation (cell-free)
As for the experimental part:
as §1, §2, §3

The target of a further test is T5, SYK (Homo sapiens, UniProt P43405).
T5 construct: autophosphorylation activity from full-length clones Spleen Tyrosine Kinase (SYK) and Eph receptor-A7 (EphA7); host or cells: rabbit reticulocyte lysate, TnT coupled in vitro transcription/translation (cell-free)
As for the experimental part:
as §1, §2, §3

The next test deals with FRK. As for the experimental part:
as §1, §2, §3

A further test addresses T6, Tek (Mus musculus, UniProt Q02858).
T6 construct: specificity data for proteins generated from a library of eighteen full-length clones; host or cells: rabbit reticulocyte lysate, TnT coupled in vitro transcription/translation (cell-free)
As for the experimental part:
as §1, §2, §3

In a further test the target is T7, FGFR1 (Homo sapiens, UniProt P11362).
T7 construct: specificity data for proteins generated from a library of eighteen full-length clones; host or cells: rabbit reticulocyte lysate, TnT coupled transcription/translation
As for the experimental part:
as §1, §2, §3

Another test deals with T8, Fert2 (Mus musculus, UniProt P70451).
T8 construct: specificity data for proteins generated from a library of eighteen full-length clones; host or cells: rabbit reticulocyte lysate, TnT coupled transcription/translation
As for the experimental part:
as §1, §2, §3

T2 sequence (Q03142 17-799): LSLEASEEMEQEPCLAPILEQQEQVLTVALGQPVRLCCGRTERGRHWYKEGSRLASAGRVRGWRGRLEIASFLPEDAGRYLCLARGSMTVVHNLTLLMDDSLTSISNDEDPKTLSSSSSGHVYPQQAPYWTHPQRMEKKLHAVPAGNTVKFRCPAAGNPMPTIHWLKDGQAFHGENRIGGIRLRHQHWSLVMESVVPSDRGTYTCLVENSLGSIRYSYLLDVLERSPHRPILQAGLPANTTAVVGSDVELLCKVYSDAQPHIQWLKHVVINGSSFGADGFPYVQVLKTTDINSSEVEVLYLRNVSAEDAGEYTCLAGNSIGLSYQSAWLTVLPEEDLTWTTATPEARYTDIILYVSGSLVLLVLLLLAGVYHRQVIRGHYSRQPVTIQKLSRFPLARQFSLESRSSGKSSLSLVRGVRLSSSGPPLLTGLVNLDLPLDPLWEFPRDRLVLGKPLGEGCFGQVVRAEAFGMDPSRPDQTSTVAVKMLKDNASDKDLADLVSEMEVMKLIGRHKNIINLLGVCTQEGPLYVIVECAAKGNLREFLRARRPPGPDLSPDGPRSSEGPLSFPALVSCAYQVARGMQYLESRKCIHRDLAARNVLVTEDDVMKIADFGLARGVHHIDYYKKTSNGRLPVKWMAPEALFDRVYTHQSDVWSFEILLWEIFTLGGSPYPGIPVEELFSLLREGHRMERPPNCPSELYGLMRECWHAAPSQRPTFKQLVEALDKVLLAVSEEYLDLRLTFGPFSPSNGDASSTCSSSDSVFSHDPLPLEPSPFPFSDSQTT
T4 sequence (P08631 whole entry): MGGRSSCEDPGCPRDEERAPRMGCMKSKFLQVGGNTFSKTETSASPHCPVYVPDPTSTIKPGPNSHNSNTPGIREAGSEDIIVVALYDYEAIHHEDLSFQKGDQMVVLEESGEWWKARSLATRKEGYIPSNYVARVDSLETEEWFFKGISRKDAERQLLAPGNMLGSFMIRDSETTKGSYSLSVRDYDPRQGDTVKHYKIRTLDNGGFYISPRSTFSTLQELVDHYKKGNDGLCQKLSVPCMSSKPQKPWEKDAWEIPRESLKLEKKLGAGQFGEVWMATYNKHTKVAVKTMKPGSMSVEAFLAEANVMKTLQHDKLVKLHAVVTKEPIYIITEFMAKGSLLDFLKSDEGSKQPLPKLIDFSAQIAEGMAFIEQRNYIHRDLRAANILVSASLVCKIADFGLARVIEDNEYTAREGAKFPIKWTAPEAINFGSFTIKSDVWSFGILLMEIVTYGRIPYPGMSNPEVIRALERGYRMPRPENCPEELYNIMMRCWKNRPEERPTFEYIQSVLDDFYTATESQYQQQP
T6 sequence (Q02858 23-1122): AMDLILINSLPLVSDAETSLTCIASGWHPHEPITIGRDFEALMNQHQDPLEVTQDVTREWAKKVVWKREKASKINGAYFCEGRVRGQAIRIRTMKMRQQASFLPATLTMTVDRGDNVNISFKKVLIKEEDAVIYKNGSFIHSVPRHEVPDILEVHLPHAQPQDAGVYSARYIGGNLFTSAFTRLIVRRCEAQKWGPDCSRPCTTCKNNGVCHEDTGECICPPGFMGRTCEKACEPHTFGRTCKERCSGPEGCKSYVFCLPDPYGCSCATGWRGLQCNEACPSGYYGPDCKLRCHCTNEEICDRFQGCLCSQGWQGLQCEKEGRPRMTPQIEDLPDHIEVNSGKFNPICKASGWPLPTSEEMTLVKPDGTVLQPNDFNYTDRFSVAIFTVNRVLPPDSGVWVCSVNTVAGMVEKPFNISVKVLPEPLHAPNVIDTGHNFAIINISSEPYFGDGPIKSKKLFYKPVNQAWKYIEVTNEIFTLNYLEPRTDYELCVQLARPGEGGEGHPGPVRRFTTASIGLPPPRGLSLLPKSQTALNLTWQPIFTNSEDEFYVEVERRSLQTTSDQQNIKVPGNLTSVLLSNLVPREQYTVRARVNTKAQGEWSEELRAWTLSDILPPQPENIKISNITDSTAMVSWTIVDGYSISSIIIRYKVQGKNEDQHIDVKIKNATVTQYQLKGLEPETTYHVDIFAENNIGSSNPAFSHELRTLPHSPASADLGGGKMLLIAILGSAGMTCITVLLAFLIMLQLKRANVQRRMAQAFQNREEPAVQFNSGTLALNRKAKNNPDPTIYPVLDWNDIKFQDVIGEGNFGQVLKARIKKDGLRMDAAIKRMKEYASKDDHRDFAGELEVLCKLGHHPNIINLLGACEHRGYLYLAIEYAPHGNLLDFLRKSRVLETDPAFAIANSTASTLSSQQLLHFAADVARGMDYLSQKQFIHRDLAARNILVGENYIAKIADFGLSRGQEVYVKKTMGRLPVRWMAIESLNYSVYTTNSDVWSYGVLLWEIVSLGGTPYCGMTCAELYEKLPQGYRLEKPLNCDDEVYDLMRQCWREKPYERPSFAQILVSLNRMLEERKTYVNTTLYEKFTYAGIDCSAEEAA
T8 sequence (P70451 whole entry): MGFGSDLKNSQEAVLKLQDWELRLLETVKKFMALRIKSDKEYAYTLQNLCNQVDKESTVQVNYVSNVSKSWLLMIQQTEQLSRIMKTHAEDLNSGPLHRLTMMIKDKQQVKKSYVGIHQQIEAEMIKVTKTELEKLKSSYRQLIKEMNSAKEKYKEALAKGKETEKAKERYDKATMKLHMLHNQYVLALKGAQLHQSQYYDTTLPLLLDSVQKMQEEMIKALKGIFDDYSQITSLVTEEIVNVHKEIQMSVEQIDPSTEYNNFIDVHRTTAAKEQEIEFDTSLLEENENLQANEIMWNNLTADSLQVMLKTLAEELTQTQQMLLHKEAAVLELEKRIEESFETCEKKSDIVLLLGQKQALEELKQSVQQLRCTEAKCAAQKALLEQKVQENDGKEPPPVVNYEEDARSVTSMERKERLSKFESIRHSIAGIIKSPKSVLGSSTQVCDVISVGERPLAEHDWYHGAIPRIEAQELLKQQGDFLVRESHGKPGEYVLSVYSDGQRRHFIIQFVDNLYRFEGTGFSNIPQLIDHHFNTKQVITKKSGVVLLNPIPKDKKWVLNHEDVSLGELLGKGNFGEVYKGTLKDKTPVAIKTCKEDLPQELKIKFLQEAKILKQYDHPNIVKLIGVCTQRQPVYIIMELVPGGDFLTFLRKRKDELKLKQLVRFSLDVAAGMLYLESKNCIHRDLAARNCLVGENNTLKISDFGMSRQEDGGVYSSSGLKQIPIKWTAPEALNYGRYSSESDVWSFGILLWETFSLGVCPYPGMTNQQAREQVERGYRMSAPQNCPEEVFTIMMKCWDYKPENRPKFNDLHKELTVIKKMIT
T7 sequence (P11362 22-822): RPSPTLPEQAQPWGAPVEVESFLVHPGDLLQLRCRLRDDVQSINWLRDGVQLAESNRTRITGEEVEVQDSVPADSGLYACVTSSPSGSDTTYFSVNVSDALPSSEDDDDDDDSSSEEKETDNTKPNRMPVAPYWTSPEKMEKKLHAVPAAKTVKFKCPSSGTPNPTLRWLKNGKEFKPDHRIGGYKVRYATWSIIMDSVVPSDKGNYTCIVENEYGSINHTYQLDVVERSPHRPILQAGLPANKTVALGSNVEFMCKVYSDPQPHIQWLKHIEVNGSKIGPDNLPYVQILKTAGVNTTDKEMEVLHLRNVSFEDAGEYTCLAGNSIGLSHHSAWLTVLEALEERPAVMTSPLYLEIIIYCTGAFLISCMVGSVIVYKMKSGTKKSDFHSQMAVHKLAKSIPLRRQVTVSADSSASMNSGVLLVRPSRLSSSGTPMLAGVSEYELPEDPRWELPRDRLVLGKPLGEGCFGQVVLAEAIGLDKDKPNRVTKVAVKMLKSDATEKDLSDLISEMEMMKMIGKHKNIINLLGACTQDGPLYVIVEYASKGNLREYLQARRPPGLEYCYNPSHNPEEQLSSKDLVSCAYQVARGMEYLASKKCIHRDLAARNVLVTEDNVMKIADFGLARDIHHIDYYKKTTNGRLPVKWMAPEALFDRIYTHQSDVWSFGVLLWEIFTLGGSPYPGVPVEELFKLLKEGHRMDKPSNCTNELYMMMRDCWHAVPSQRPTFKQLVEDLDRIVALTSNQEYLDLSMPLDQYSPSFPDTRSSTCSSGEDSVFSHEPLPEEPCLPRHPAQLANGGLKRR
T3 sequence (P41240 whole entry): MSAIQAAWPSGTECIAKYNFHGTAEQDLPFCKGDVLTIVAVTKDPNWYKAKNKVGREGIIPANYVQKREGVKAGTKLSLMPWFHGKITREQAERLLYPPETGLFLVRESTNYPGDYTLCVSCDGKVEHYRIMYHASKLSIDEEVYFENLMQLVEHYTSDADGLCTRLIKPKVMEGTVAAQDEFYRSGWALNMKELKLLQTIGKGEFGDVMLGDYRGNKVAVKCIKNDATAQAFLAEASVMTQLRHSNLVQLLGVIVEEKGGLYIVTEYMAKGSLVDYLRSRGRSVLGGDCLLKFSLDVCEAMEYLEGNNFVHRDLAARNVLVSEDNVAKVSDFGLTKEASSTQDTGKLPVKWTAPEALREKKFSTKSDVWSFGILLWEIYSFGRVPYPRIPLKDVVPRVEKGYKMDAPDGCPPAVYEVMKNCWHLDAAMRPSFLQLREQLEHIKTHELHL

As to `Cc1ccc(-c2nn(C(C)(C)C)c3ncnc(N)c23)cc1` [PP1], the “Inhibition specificity towards Autophosphorylation at 10X IC50, Src” value at SRC was “L (low inhibition (“L”=between 50–75% of the activity remaining))”.

Regarding `COC(=O)c1ccc(NCc2cc(O)ccc2O)cc1` [AG-957], the “Inhibition specificity towards Autophosphorylation at 10X IC50, Fgfr4” value on Fgfr4 is given as “L (low inhibition (“L”=between 50–75% of the activity remaining))”. At CSK, the “Inhibition specificity towards Autophosphorylation at 10X IC50, CSK” value is “L (low inhibition (“L”=between 50–75% of the activity remaining))”. Also, the “Inhibition specificity towards Autophosphorylation at 10X IC50, HCK” value at HCK is “L (low inhibition (“L”=between 50–75% of the activity remaining))”. At SYK, the “Inhibition specificity towards Autophosphorylation at 10X IC50, SYK” value is “L (low inhibition (“L”=between 50–75% of the activity remaining))”. Moreover, the “Inhibition specificity towards Autophosphorylation at 10X IC50, FRK” value in the test with FRK is “L (low inhibition (“L”=between 50–75% of the activity remaining))”. The “Inhibition specificity towards Autophosphorylation at 10X IC50, Tek” value on Tek was “M (medium inhibition (“M”=between 25 to 50% of the activity remaining))”. In addition, the “Inhibition specificity towards Autophosphorylation at 10X IC50, Src” value at SRC was “L (low inhibition (“L”=between 50–75% of the activity remaining))”. Further, at FGFR1, the “Inhibition specificity towards Autophosphorylation at 10X IC50, FGFR1” value is “L (low inhibition (“L”=between 50–75% of the activity remaining))”.

In the case of `Cc1cc2ncc(-c3ccc(O)c(O)c3)nc2cc1C` [AG-1433], the “Inhibition specificity towards Autophosphorylation at 10X IC50, Fgfr4” value at Fgfr4 was “H (high inhibition (“H”=less than 25% of the activity remaining))”. Besides, the “Inhibition specificity towards Autophosphorylation at 10X IC50, CSK” value at CSK was “H (high inhibition (“H”=less than 25% of the activity remaining))”. The “Inhibition specificity towards Autophosphorylation at 10X IC50, Fert2” value on Fert2 is on record as “H (high inhibition (“H”=less than 25% of the activity remaining))”. Also, on HCK, the “Inhibition specificity towards Autophosphorylation at 10X IC50, HCK” value is on record as “H (high inhibition (“H”=less than 25% of the activity remaining))”. In addition, the “Inhibition specificity towards Autophosphorylation at 10X IC50, SYK” value on SYK is “H (high inhibition (“H”=less than 25% of the activity remaining))”. Besides, the “Inhibition specificity towards Autophosphorylation at 10X IC50, FRK” value in the test with FRK was “H (high inhibition (“H”=less than 25% of the activity remaining))”. Moreover, the “Inhibition specificity towards Autophosphorylation at 10X IC50, Tek” value on Tek was “H (high inhibition (“H”=less than 25% of the activity remaining))”. On SRC, the “Inhibition specificity towards Autophosphorylation at 10X IC50, Src” value is “H (high inhibition (“H”=less than 25% of the activity remaining))”. The “Inhibition specificity towards Autophosphorylation at 10X IC50, FGFR1” value at FGFR1 is reported as “H (high inhibition (“H”=less than 25% of the activity remaining))”.

Regarding Erbstatin analog, the “Inhibition specificity towards Autophosphorylation at 10X IC50, Fert2” value at Fert2 is “L (low inhibition (“L”=between 50–75% of the activity remaining))”. Further, the “Inhibition specificity towards Autophosphorylation at 10X IC50, HCK” value on HCK is listed as “L (low inhibition (“L”=between 50–75% of the activity remaining))”. The “Inhibition specificity towards Autophosphorylation at 10X IC50, SYK” value on SYK is on record as “L (low inhibition (“L”=between 50–75% of the activity remaining))”. Moreover, the “Inhibition specificity towards Autophosphorylation at 10X IC50, Tek” value on Tek was “L (low inhibition (“L”=between 50–75% of the activity remaining))”. In addition, on SRC, the “Inhibition specificity towards Autophosphorylation at 10X IC50, Src” value was “L (low inhibition (“L”=between 50–75% of the activity remaining))”.

For `COc1c(C=O)c(O)cc2c1C(=O)c1ccccc1C2=O` [Damnacanthal], the “Inhibition specificity towards Autophosphorylation at 10X IC50, Fgfr4” value on Fgfr4 was “H (high inhibition (“H”=less than 25% of the activity remaining))”. In addition, on CSK, the “Inhibition specificity towards Autophosphorylation at 10X IC50, CSK” value is “M (medium inhibition (“M”=between 25 to 50% of the activity remaining))”. In addition, the “Inhibition specificity towards Autophosphorylation at 10X IC50, Fert2” value at Fert2 was “L (low inhibition (“L”=between 50–75% of the activity remaining))”. Moreover, the “Inhibition specificity towards Autophosphorylation at 10X IC50, HCK” value on HCK is on record as “M (medium inhibition (“M”=between 25 to 50% of the activity remaining))”. The “Inhibition specificity towards Autophosphorylation at 10X IC50, SYK” value on SYK is listed as “M (medium inhibition (“M”=between 25 to 50% of the activity remaining))”. The “Inhibition specificity towards Autophosphorylation at 10X IC50, FRK” value in the test on FRK was “H (high inhibition (“H”=less than 25% of the activity remaining))”. For the same compound, the “Inhibition specificity towards Autophosphorylation at 10X IC50, Tek” value at Tek is “H (high inhibition (“H”=less than 25% of the activity remaining))”. Further, the “Inhibition specificity towards Autophosphorylation at 10X IC50, Src” value at SRC was “H (high inhibition (“H”=less than 25% of the activity remaining))”. Further, on FGFR1, the “Inhibition specificity towards Autophosphorylation at 10X IC50, FGFR1” value was “M (medium inhibition (“M”=between 25 to 50% of the activity remaining))”.

As to `CC(C)(C)c1cc(C=C(C#N)C#N)cc(Br)c1O` [AG-1024], the “Inhibition specificity towards Autophosphorylation at 10X IC50, Fgfr4” value at Fgfr4 is “L (low inhibition (“L”=between 50–75% of the activity remaining))”. The “Inhibition specificity towards Autophosphorylation at 10X IC50, Tek” value on Tek is given as “M (medium inhibition (“M”=between 25 to 50% of the activity remaining))”.
